inhibition, melting point and intestinal absorption data for 17 compounds are collected here from patent publication US8410109B2, “Pharmaceutical compositions for the prevention and treatment of complex diseases and their delivery by insertable medical devices” (Resverlogix Corp., priority 2005, dated 2013).

SMILES strings stand for the structures. A value given as a limit tells only on which side of the number the result lay.

The subject of one data set is VCAM-1. The data set can be described thus: VCAM-1 ELISA on lysates of TNF-α stimulated HUVECs. It is filed as cell-based. Conditions: Homo sapiens, HUVEC, 50 uM, approx. 16 hours. The protocol: (§1) Compounds were dissolved in DMSO, aliquoted, and stored at −20° C. Cultured human vascular endothelial cells (HUVECs) were seeded in 96-well plates in complete EGM-2 media (˜100 μL/well); cells were plated at ˜2-3×10^5/mL, and were from passage 8 to 12. Cells were incubated overnight. On the following day cells are stimulated with TNF-α (˜1 ng/mL) in the presence or absence of compounds dissolved in DMSO. Triplicate wells were used for each test. To establish a dose curve and an IC50, multiple concentrations in 2- to 5-fold increments were used. Cells were exposed to TNF-α and compounds for approximately 16 hours. The next day, cells were visually examined via light microscopy to score for visual signs of toxicity. Cell culture media was analyzed using an MCP-1 ELISA. Cells were refed (−100 μL/well) with 20% CellTiter 96. Aqueous One Cell Proliferation Solution (Promega), 80% EGM-2 medium. Media optical density (at 490 nm) was determined after 1 hour. Plates were aspirated and cell lysates were prepared and these lysates were tested using a VCAM-1 ELISA.
(§2) In Table 2, a positive result (+) was defined as at least 50% inhibition of the protein levels MCP-1 or VCAM-1, as determined by the ELISA.
On the technique in general: An ELISA detects its analyte on a solid surface through an enzyme-linked reagent.

The test system of data set [1] is Human coronary artery smooth muscle cells (CASMCs). The data set can be described thus: Smooth muscle cell proliferation protocol. Conditions: 50 uM, 72 hours, read-out: % Inhibition of SMC Proliferation. Format: cell-based. The protocol:
Compounds were dissolved in DMSO, aliquoted, and stored at −20° C. Human coronary artery smooth muscle cells (CASMCs) were plated in 96-well plates and were grown in SmBM-2 media. After 1-2 hours, media was aspirated and replaced with serum-free ME/F12 media, except the controls. Cells were incubated for a further 48 hours. Compounds were diluted in DME/F12 containing 10% FBS. Media was aspirated from the plates and compounds in DME/F12 containing 10% FBS. Six wells were used per condition and duplicate plates were used. Cells were incubated for a further 72 hours. Media was aspirated from one set of plates; those cells were refed (˜100 μL/well) with 20% CellTiter 96 Aqueous One Cell Proliferation Solution (Promega), 80% EGM-2 medium. Media optical density (at 490 nm) was determined after 3-4 hours. In the second set of plates, serum-free DME/F12 media (20 μL) was added to each well. Part of the supernatant (50 μL) was removed and placed in an ELISA plate and was stored temporarily at 4° C. The remaining media and cells in the second set of plates were freeze-thawed for four cycles. The lysates and supernatants were mixed and centrifuged. Part of the supernatant (50 μL) was removed and placed in an ELISA plate. The Promega Cytotox assay was performed on the ELISA plates. The ratio of supernatant OD to supernatant+cell lysate OD was determined.
In Table 2, a positive result (+) was defined as at least 40% inhibition of the proliferation of SMC, as determined by the assay.

The subject of a further data set is MCP-1. Description: MCP-1 ELISA on culture media of TNF-α stimulated HUVECs. Conditions: Homo sapiens, HUVEC, 50 uM, approx. 16 hours. Format: cell-based. The protocol:
as §1, §2

The conditions of data set [2]: following oral administration (Gugler et al. 1975); cited from earlier work.

As a reminder, the melting point is the temperature, or range, at which the solid turns liquid. With `COc1cccc2c(=O)[nH]c(-c3ccc(O)c(F)c3)cc12` [EXAMPLE 18, 3-(3-Fluoro-4-hydroxyphenyl)-5-methoxyisoquinolin-1(2H)-one], the melting point is 289 to 291 °C. Moreover, in the data set on VCAM-1, the inhibition at 50 µM is at least 50%. In data set [1], the inhibition at 50 µM is at least 40%. Besides, the inhibition at 50 µM in the data set on MCP-1 is at least 50%.

The compound `COc1cc(OC)c2c(=O)[nH]c(-c3ccc(O)cc3)cc2c1` [EXAMPLE 19, 3-(4-Hydroxyphenyl)-6,8-dimethoxyisoquinolin-1(2H)-one] came in with a melting point of 245 to 247 °C. For the same compound, the inhibition at 50 µM in the data set on VCAM-1 was below 50%. Further, the inhibition at 50 µM in data set [1] is at least 40%. This compound returned an inhibition at 50 µM with MCP-1 of at least 50%.

Turning to `O=c1[nH]c(-c2ccc(O)cc2)cc2ccccc12` [EXAMPLE 21, 3-(4-Hydroxyphenyl)-2H-isoquinolin-1-one], the melting point lay within 239 to 241 °C. For the same compound, the inhibition at 50 µM in the data set on VCAM-1 was at least 50%. Also, the inhibition at 50 µM in data set [1] is at least 40%. This compound displayed an inhibition at 50 µM in the data set on MCP-1 of at least 50%.

In the case of `O=c1cc(-c2ccccc2)oc2ncccc12` [EXAMPLE 22, 2-Phenyl-4H-pyrano[2,3-b]pyridin-4-one], the melting point lay within 103 to 105 °C. Further, in the data set on VCAM-1, the inhibition at 50 µM was below 50%. The inhibition at 50 µM in data set [1] was at least 40%. In addition, in the data set on MCP-1, the inhibition at 50 µM is below 50%.

Compound `O=c1cc(-c2ccc(CO)cc2)oc2ncccc12` [EXAMPLE 23, 2-(4-(hydroxymethyl)phenyl)-4H-pyrano[2,3-b]pyridin-4-one] showed a melting point of 218 to 219 °C. Also, in the data set with VCAM-1, the inhibition at 50 µM is below 50%. Besides, the inhibition at 50 µM in data set [1] is at least 40%. In the data set on MCP-1, this compound gave an inhibition at 50 µM below 50%.

Compound `Cc1cc(-c2cc(=O)c3cccnc3o2)cc(C)c1O` [EXAMPLE 24, 2-(4-hydroxy-3,5-dimethylphenyl)-4H-pyrano[2,3-b]pyridin-4-one] had a melting point of 295 to 297 °C. Besides, the inhibition at 50 µM in the data set with VCAM-1 is at least 50%. For the same compound, the inhibition at 50 µM in data set [1] was at least 40%. For the same compound, the inhibition at 50 µM in the data set with MCP-1 was at least 50%.

In turn, `O=c1cc(-c2cccnc2)oc2ccccc12` [EXAMPLE 25, 2-(pyridin-3-yl)-4H-chromen-4-one] yielded a melting point of 122.8 to 124 °C. Further, in the data set with VCAM-1, the inhibition at 50 µM is below 50%. Moreover, the inhibition at 50 µM in data set [1] is at least 40%. The same compound displayed an inhibition at 50 µM with MCP-1 below 50%.

In turn, `O=c1cc(-c2ccc(O)c(-c3cccs3)c2)oc2ncccc12` [EXAMPLE 28, 2-(4-hydroxy-3-(thiophen-2-yl)phenyl)-4H-pyrano[2,3-b]pyridin-one] returned a melting point of 273.5 to 275 °C. The compound also returned an inhibition at 50 µM with VCAM-1 of at least 50%. Also, the inhibition at 50 µM in data set [1] is below 40%. This compound also had an inhibition at 50 µM in the data set on MCP-1 below 50%.

`Cc1cc(-c2cc(=O)c3cccnc3o2)cc(C)c1OCC(=O)O` [EXAMPLE 29, 2-(2,6-dimethyl-4-(4-oxo-4H-pyrano[2,3-b]pyridin-2-yl)phenoxy)acetic Acid] had a melting point of 280 °C. In the data set on VCAM-1, this compound yielded an inhibition at 50 µM below 50%. The inhibition at 50 µM in data set [1] is at least 40%. This compound gave an inhibition at 50 µM with MCP-1 below 50%.

Compound `O=c1cc(-c2ccc(O)c(Br)c2)oc2ncccc12` [EXAMPLE 32, 2-(3-Bromo-4-hydroxyphenyl)-4H-pyrano[2,3-b]pyridin-4-one] registered a melting point of 267 to 272 °C. Further, in the data set with VCAM-1, the inhibition at 50 µM was at least 50%. For the same compound, the inhibition at 50 µM in data set [1] was at least 40%. Also, the inhibition at 50 µM in the data set with MCP-1 is below 50%.

In the case of `O=c1[nH]c2ccc(-c3cc(=O)c4ccccc4o3)cc2o1` [EXAMPLE 36, 6-(4-oxo-4H-chromen-2-yl)benzo[d]oxazol-2(3H)-one], the melting point fell in the range of 347.6 to 348.2 °C. For the same compound, the inhibition at 50 µM in the data set on VCAM-1 is at least 50%. Besides, the inhibition at 50 µM in data set [1] was at least 40%. Also, in the data set with MCP-1, the inhibition at 50 µM was below 50%.

Turning to `COc1cc(OC)c2c(=O)[nH]c(-c3cc(C)c(OCC(C)(C)O)c(C)c3)cc2c1` [EXAMPLE 42, 3-(4-(2-hydroxy-2-methylpropoxy)-3,5-dimethylphenyl)-6,8-dimethoxyisoquinolin-1(2H)-one], the melting point was in the range of 252 to 254 °C. This compound came in with an inhibition at 50 µM with VCAM-1 of at least 50%. In addition, in data set [1], the inhibition at 50 µM was at least 40%. In the data set on MCP-1, this compound displayed an inhibition at 50 µM below 50%.

As for `O=c1cc(-c2ccc3nccnc3c2)oc2ncccc12` [EXAMPLE 44, 2-(quinoxalin-6-yl)-4H-pyrano[2,3-b]pyridin-4-one], the melting point fell in the range of 272.3 to 274.8 °C. This compound also showed an inhibition at 50 µM with VCAM-1 of at least 50%. The inhibition at 50 µM in data set [1] was at least 40%. The inhibition at 50 µM in the data set with MCP-1 is below 50%.

`COc1cc(OC)c2c(N)nc(-c3cc(C)c(O)c(C)c3)cc2n1` [EXAMPLE 45, 4-(5-amino-2,4-dimethoxy-1,6-naphthyridin-7-yl)-2,6-dimethylphenol] showed a melting point of 163.2 to 165.5 °C. In addition, in the data set with VCAM-1, the inhibition at 50 µM is at least 50%. Further, the inhibition at 50 µM in data set [1] was at least 40%. In addition, in the data set on MCP-1, the inhibition at 50 µM was below 50%.

On to `O=c1[nH]c(-c2ccc(F)cc2)nc2ccc(CN3CCOCC3)cc12` [EXAMPLE 46, 2-(4-fluorophenyl)-6-(morpholinomethyl)quinazolin-4(3H)-one], for which the melting point fell in the range of 321.8 to 323.3 °C. In the data set on VCAM-1, this compound registered an inhibition at 50 µM below 50%. For the same compound, in data set [1], the inhibition at 50 µM was at least 40%. This compound also showed an inhibition at 50 µM in the data set with MCP-1 below 50%.

`O=c1cc(-c2ccc3[nH]ncc3c2)oc2ncc(CN3CCOCC3)cc12` [EXAMPLE 47, 2-(1H-indazol-5-yl)-6-(morpholinomethyl)-4H-pyrano[2,3-b]pyridin-4-one] showed a melting point of 293.1 to 293.2 °C. Also, the inhibition at 50 µM with VCAM-1 was below 50%. Also, the inhibition at 50 µM in data set [1] is at least 40%. For the same compound, the inhibition at 50 µM with MCP-1 was below 50%.

Regarding `O=c1c(O)c(-c2ccc(O)c(O)c2)oc2cc(O)cc(O)c12` [quercetin], the intestinal absorption entry in data set [2] is on record as “less than 1%”.
